Experimental data reported in publication PMC7587356, “High-Throughput Screening for Inhibitors of the SARS-CoV-2 Protease Using a FRET-Biosensor” (Molecules, 2020).
Structures can show the parent of a compound that is named as a salt. Where two headings read alike, the source gives them in different places.

Target: SARS-CoV-2 3CLpro (Severe acute respiratory syndrome coronavirus 2, UniProt P0DTD1)
Test: biochemical
Assay type: biochemical
Design: Replicate_1 / Replicate_2 / mean / mean (LOPAC_screen_w_protease): unit not given here
Conditions: for inhibition at 5 µM: 4 h
[1] = LOPAC1280 primary screen with protease, 5 µM compound, mean of two replicates
[2] = LOPAC1280 primary screen with protease, 5 µM compound, replicate 1
[3] = LOPAC1280 primary screen with protease, 5 µM compound, replicate 2
[4] = sheet LOPAC_screen_w_protease, LOPAC1280 at 5 µM, mean of two replicates
[5] = sheet LOPAC_screen_w_protease, LOPAC1280 at 5 µM, replicate 1
[6] = sheet LOPAC_screen_w_protease, LOPAC1280 at 5 µM, replicate 2
[7] = sheet LOPAC_screen_w_protease, primary screen with protease, 5 µM, mean of two replicates
[8] = sheet LOPAC_screen_w_protease, primary screen with protease, 5 µM, replicate 1
[9] = sheet LOPAC_screen_w_protease, primary screen with protease, 5 µM, replicate 2
[10] = sheet LOPAC_screen_w_protease, primary screen with protease, compound at 5 µM, mean of two replicates
[11] = sheet LOPAC_screen_w_protease, primary screen with protease, compound at 5 µM, replicate 2
[12] = LOPAC1280 primary screen with protease, 5 µM compound, mean of the two replicates
[13] = sheet LOPAC_screen_w_protease, primary screen with protease, compound at 5 µM, replicate 1
[14] = sheet LOPAC_screen_w_protease, LOPAC1280 primary screen with protease, 5 µM compound, mean of the two replicates
[15] = sheet LOPAC_screen_w_protease, LOPAC1280 primary screen with protease, 5 µM compound, replicate 1
[16] = sheet LOPAC_screen_w_protease, LOPAC1280 primary screen with protease, 5 µM compound, replicate 2
[17] = sheet LOPAC_screen_w_protease, primary screen with protease, mean of two replicates
[18] = sheet LOPAC_screen_w_protease, primary screen with protease, replicate 1
[19] = sheet LOPAC_screen_w_protease, primary screen with protease, replicate 2
[20] = read-out: Replicate_1 (LOPAC_screen_w_protease)
[21] = read-out: Replicate_2 (LOPAC_screen_w_protease)
[22] = LOPAC1280 primary screen with protease, 5 µM compound, replicate 1, read-out: Replicate_1 (LOPAC_screen_w_protease)
[23] = LOPAC1280 primary screen with protease, 5 µM compound, replicate 2, read-out: Replicate_2 (LOPAC_screen_w_protease)
[24] = sheet LOPAC_screen_w_protease, primary screen of LOPAC1280 at 5 µM with protease, mean of the two replicates
[25] = sheet LOPAC_screen_w_protease, primary screen of LOPAC1280 at 5 µM with protease, replicate 1
[26] = sheet LOPAC_screen_w_protease, primary screen of LOPAC1280 at 5 µM with protease, replicate 2
[27] = sheet LOPAC_screen_w_protease, primary screen of LOPAC1280 at 5 µM with protease, mean of the two replicates, read-out: mean
[28] = sheet LOPAC_screen_w_protease, primary screen of LOPAC1280 at 5 µM with protease, replicate 1, read-out: Replicate_1
[29] = sheet LOPAC_screen_w_protease, primary screen of LOPAC1280 at 5 µM with protease, replicate 2, read-out: Replicate_2

## C[N+]1(C)CCN(c2ccccc2)CC1.[I-]
Sheet LOPAC_screen_w_protease, primary screen at 5 µM, mean of two replicates
  mean (LOPAC screen with protease): 7.007
Sheet LOPAC_screen_w_protease, primary screen at 5 µM, replicate 1
  Replicate_1 (LOPAC screen with protease): 5.351
Sheet LOPAC_screen_w_protease, primary screen at 5 µM, replicate 2
  Replicate_2 (LOPAC screen with protease): 8.6627

## N[C@@H](CS(=O)O)C(=O)O [L-Cysteinesulfinic Acid]
[1]
  mean (LOPAC_screen_w_protease): 1.669
[2]
  Replicate_1 (LOPAC_screen_w_protease): 1.739
[3]
  Replicate_2 (LOPAC_screen_w_protease): 1.598

## N=C(N)NC(=N)Nc1ccccc1 [1-Phenylbiguanide]
Sheet LOPAC_screen_w_protease, LOPAC1280 primary screen at 5 µM, with protease, mean of the two replicates
  mean: 0.7649
Sheet LOPAC_screen_w_protease, LOPAC1280 primary screen at 5 µM, with protease, replicate 1
  Replicate_1: -0.09991
Sheet LOPAC_screen_w_protease, LOPAC1280 primary screen at 5 µM, with protease, replicate 2
  Replicate_2: 1.6298

## CN1[C@@H](CC(=O)c2ccccc2)CCC[C@H]1C[C@H](O)c1ccccc1.Cl [alpha-Lobeline hydrochloride]
[4]
  mean: 1.292
[5]
  Replicate_1: 1.696
[6]
  Replicate_2: 0.8887

## COC1(C2=NCCN2)COc2ccccc2O1.Cl (stereo not shown) [RX 821002 hydrochloride]
[7]
  mean: 0.0583
[8]
  Replicate_1: -1.138
[9]
  Replicate_2: 1.255

## C[N+](C)(C)CCOC(=O)CCC(=O)OCC[N+](C)(C)C [Succinylcholine chloride]
Sheet LOPAC_screen_w_protease, LOPAC1280 at 5 µM, mean of two replicates, read-out: mean
  inhibition at 5 µM: 1.08%
Sheet LOPAC_screen_w_protease, LOPAC1280 at 5 µM, replicate 1, read-out: Replicate_1
  inhibition at 5 µM: 1.05%
Sheet LOPAC_screen_w_protease, LOPAC1280 at 5 µM, replicate 2, read-out: Replicate_2
  inhibition at 5 µM: 1.11%

## C[C@@]1(C2CCCC2)Cc2cc(OCC(=O)O)c(Cl)c(Cl)c2C1=O [R(+)-IAA-94]
[10]
  mean: 3.0784
[11]
  Replicate_2: 3.637

## Cc1cccc(C(=O)NCN2CCN(c3ccccc3C#N)CC2)c1.O=C(O)/C=C\C(=O)O [PD 168,077 maleate]
[4]
  mean: 1.169
[5]
  Replicate_1: 0.792
[6]
  Replicate_2: 1.545

## CCCCCCCCCCCCCCCCCC(=O)OC(CC(=O)O)C[N+](C)(C)C.[Cl-] (racemic) [DL-Stearoylcarnitine chloride]
[12]
  mean (LOPAC_screen_w_protease): 1.7681
[2]
  Replicate_1 (LOPAC_screen_w_protease): 3.299
[3]
  Replicate_2 (LOPAC_screen_w_protease): 0.2369

## N[C@H](CCCCCP(=O)(O)O)C(=O)O [D(-)-2-Amino-7-phosphonoheptanoic acid]
[10]
  mean: 3.051
[13]
  Replicate_1: 3.469
[11]
  Replicate_2: 2.633

## CSc1nc(N)c2ncn([C@@H]3O[C@H](COP(=O)(O)OP(=O)(O)O)[C@@H](O)[C@H]3O)c2n1.[Na].[Na].[Na]
[14]
  mean: 4.674
[15]
  Replicate_1: 4.609
[16]
  Replicate_2: 4.739

## CC(N)Cc1c[nH]c2ccc(O)cc12.O=C(O)/C=C\C(=O)O (stereo not drawn) [alpha-Methyl-5-hydroxytryptamine maleate]
[14]
  mean: 6.214
[15]
  Replicate_1: 5.086
[16]
  Replicate_2: 7.342

## Nc1c2c(nc3ccccc13)CCCC2O.O=C(O)/C=C\C(=O)O (stereo not shown) [Hydroxytacrine maleate]
[17]
  mean: 2.348
[18]
  Replicate_1: 3.064
[19]
  Replicate_2: 1.632

## O=C(O)[C@H]1CCCN[C@H]1C(=O)O (racemic) [(±)-cis-Piperidine-2,3-dicarboxylic acid]
[1]
  mean (LOPAC_screen_w_protease): 1.527
[2]
  Replicate_1 (LOPAC_screen_w_protease): 0.9979
[3]
  Replicate_2 (LOPAC_screen_w_protease): 2.056

## NC(=O)N1c2ccccc2C=Cc2ccccc21 [Carbamazepine]
  mean (LOPAC_screen_w_protease): 1.395
[20]
  inhibition at 5 µM: 1.4%
[21]
  inhibition at 5 µM: 1.39%

## Clc1cccc(Cl)c1N=C1NCCN1 [Clonidine hydrochloride]
  mean (LOPAC_screen_w_protease): 1.822
[20]
  inhibition at 5 µM: 1.42%
[21]
  inhibition at 5 µM: 2.22%

## CCCCCCCCCCCCCCCCOCC(COCC(F)(F)F)OP(=O)(O)OC (stereo not shown) [MJ33]
  Replicate_1: 1.4444
  Replicate_2: -0.2702
  mean: 0.5871

## CNC(=O)OCC[N+](C)(C)C [Methylcarbamylcholine chloride]
Sheet LOPAC_screen_w_protease, primary screen with protease, compound at 5 µM, mean of two replicates, read-out: mean
  inhibition at 5 µM: 3%
Sheet LOPAC_screen_w_protease, primary screen with protease, compound at 5 µM, replicate 1, read-out: Replicate_1
  inhibition at 5 µM: 4.73%
Sheet LOPAC_screen_w_protease, primary screen with protease, compound at 5 µM, replicate 2, read-out: Replicate_2
  inhibition at 5 µM: 1.26%

## CN1C(=O)CC[C@H]1c1cccnc1 [(-)-Cotinine]
[17]
  mean: 2.4459
[18]
  Replicate_1: 2.442
[19]
  Replicate_2: 2.45

## CCCCC/C=C\C/C=C\C/C=C\C/C=C\CCCC(=O)NCC(=O)O [N-arachidonylglycine]
[7]
  mean: 0.3785
[8]
  Replicate_1: 1.728
[9]
  Replicate_2: -0.9708

## Cc1cc(C)c(NC(=O)C[C@H](CC(=O)O)c2cccc3ccccc23)c(C(=O)N2CCC3(CCCC3)CC2)c1 [CR 2945]
[22]
  inhibition at 5 µM: 3.19%
[23]
  inhibition at 5 µM: 0.22%
[1]
  mean (LOPAC_screen_w_protease): 1.703

## CCC1(C)CC(=O)NC1=O (stereo not shown) [Ethosuximide]
[22]
  inhibition at 5 µM: 4.21%
[23]
  inhibition at 5 µM: -0.21%
[12]
  mean (LOPAC_screen_w_protease): 1.998

## Nc1ccc(CCNc2ncnc3c2ncn3[C@@H]2O[C@H](CO)[C@@H](O)[C@H]2O)cc1 [N6-2-(4-Aminophenyl)ethyladenosine]
[24]
  mean: 3.204
[25]
  Replicate_1: 3.6817
[26]
  Replicate_2: 2.726

## Cl.Nc1c2c(nc3ccccc13)CCCC2
  Replicate_1: 1.645
  Replicate_2: 0.8036
  mean: 1.2241

## CCCNCC(O)COc1ccccc1C(=O)CCc1ccccc1 (stereo not shown) [Propafenone hydrochloride]
[27]
  inhibition at 5 µM: 3.27%
[28]
  inhibition at 5 µM: 3.05%
[29]
  inhibition at 5 µM: 3.48%

## CC(=O)OCC1=C(C(=O)O)N2C(=O)[C@@H](NC(=O)CSc3ccncc3)[C@H]2SC1 [Cephapirin sodium]
[27]
  inhibition at 5 µM: 4.07%
[28]
  inhibition at 5 µM: 3.36%
[29]
  inhibition at 5 µM: 4.79%

## Oc1ccc(C2CNCCc3c2cc(O)c(O)c3Cl)cc1 (stereo not shown) [Fenoldopam bromide]
read-out: Replicate_1 (LOPAC screen with protease)
  inhibition at 5 µM: 29.5%
read-out: Replicate_2 (LOPAC screen with protease)
  inhibition at 5 µM: 23%
read-out: mean (LOPAC screen with protease)
  inhibition at 5 µM: 26.2%

## COc1ccc(CCNC[C@H](O)c2ccc(O)cc2)cc1OC [R(-)-Denopamine]
[7]
  mean: -0.5647
[8]
  Replicate_1: -0.1092
[9]
  Replicate_2: -1.02

## NC(Cc1ccc(Cl)cc1)C(=O)O (racemic) [(±)-p-Chlorophenylalanine]
[24]
  mean: 3.154
[25]
  Replicate_1: 1.596
[26]
  Replicate_2: 4.711

## CCCCCCCC/C=C\CCCCCCCC(=O)NCCc1ccc(O)c(O)c1 [N-Oleoyldopamine]
[12]
  mean (LOPAC_screen_w_protease): 2.025
[2]
  Replicate_1 (LOPAC_screen_w_protease): 0.1379
[3]
  Replicate_2 (LOPAC_screen_w_protease): 3.912

## C/C(O)=C(\C#N)C(=O)Nc1cc(Br)ccc1Br [LFM-A13]
[1]
  mean (LOPAC_screen_w_protease): 1.507
[2]
  Replicate_1 (LOPAC_screen_w_protease): -0.001982
[3]
  Replicate_2 (LOPAC_screen_w_protease): 3.017

## CC(=O)Nc1nnc(S(N)(=O)=O)s1 [Acetazolamide]
Sheet LOPAC_screen_w_protease, primary screen with protease, 5 µM, replicate 1, read-out: Replicate_1
  inhibition at 5 µM: 0.216%
Sheet LOPAC_screen_w_protease, primary screen with protease, 5 µM, replicate 2, read-out: Replicate_2
  inhibition at 5 µM: -0.714%

## NCCNC(=O)Cc1ccc(NC(=O)Cc2ccc(Nc3ncnc4c3ncn4[C@@H]3O[C@H](CO)[C@@H](O)[C@H]3O)cc2)cc1 [Adenosine amine congener]
[10]
  mean: 2.686
[13]
  Replicate_1: 3.268
[11]
  Replicate_2: 2.1037

## CP(=O)(O)C1=CCNCC1 [TPMPA]
[7]
  mean: 0.264
[8]
  Replicate_1: -0.09904
[9]
  Replicate_2: 0.6269

## Cl.NCCC[C@](N)(C(=O)O)C(F)F (racemic)
[10]
  mean: 3.129
[13]
  Replicate_1: 3.2986
[11]
  Replicate_2: 2.959

## CC(C)NCC(O)c1cc(O)cc(O)c1.CC(C)NCC(O)c1cc(O)cc(O)c1.O=S(=O)(O)O (stereo not shown) [Metaproterenol hemisulfate]
[14]
  mean: 4.319
[15]
  Replicate_1: 2.0521
[16]
  Replicate_2: 6.586

## O=P(O)(O)C(Cl)(Cl)P(=O)(O)O [Clodronic acid]
[22]
  inhibition at 5 µM: 2.04%
[23]
  inhibition at 5 µM: 1.36%
[1]
  mean (LOPAC_screen_w_protease): 1.697

## C1COC(NC(C2CC2)C2CC2)=N1 [Rilmenidine hemifumarate]
[22]
  inhibition at 5 µM: 4.65%
[23]
  inhibition at 5 µM: -0.41%
[12]
  mean (LOPAC_screen_w_protease): 2.121
